Reference: article PMC6522510 (Nature Communications, 2019)
Counter-ions that a name gives are not always drawn. Like-named read-outs stand apart in the source and are kept apart here. Numbered stars: 1 amine (or outer) side, 2 acyl side, 3 side chain; on linkers, the order of the positions; unused ones are H or OH. Square brackets hold non-standard residues; d marks the D form. Peptide text beside a SMILES is read from it. Nle = CCCC[C@H](N)C(=O)O; CO = O=C([*:1])[*:2]

Columns and labels:
Parameters in all cases: species or system AML cell lines (8); Primary HTS, single concentration about 10 uM, Cell Titer Glo viability; log10 luminescence, per cent inhibition relative to cycloheximide control
Settings in all cases: 72 h, relative to cycloheximide control, log10 luminescence, inhibitor
CHRF288-11 = tested on: CHRF288-11
ML-2 = tested on: ML-2
CMS = tested on: CMS
CMK = tested on: CMK
MV4-11 = tested on: MV4-11
MOLM-13 = tested on: MOLM-13
M07e = tested on: M07e
U937 = tested on: U937

Compound	CHRF288-11 %inh (CHRF288-11) [%]	ML-2 %inh (ML-2) [%]	CMS %inh (CMS) [%]	CMK %inh (CMK) [%]	MV4-11 %inh (MV4-11) [%]	MOLM-13 %inh (MOLM-13) [%]	M07e %inh (M07e) [%]	U937 %inh (U937) [%]	CHRF288-11 %inh (CHRF288-11; CHRF288-11 %inh, 10 µM) [%]	ML-2 %inh (ML-2; ML-2 %inh, 10 µM) [%]	CMS %inh (CMS; CMS %inh, 10 µM) [%]	CMK %inh (CMK; CMK %inh, 10 µM) [%]	MV4-11 %inh (MV4-11; MV4-11 %inh, 10 µM) [%]	MOLM-13 %inh (MOLM-13; MOLM-13 %inh, 10 µM) [%]	M07e %inh (M07e; M07e %inh, 10 µM) [%]	U937 %inh (U937; U937 %inh, 10 µM) [%]
CNc1ncc2cc(Oc3ccc(F)cc3F)c(=O)n(C)c2n1 [SJ000581177-1]	-5.721	0.6187	-2.096	4.145	2.766	3.528	-0.008012	2.229								
COc1cccc(F)c1C(=O)c1cnc(NC2CCN(S(C)(=O)=O)CC2)nc1N [SJ000581178-1]	12.21	11.75	16.64	27.9	20.51	39.82	26.23	27.27								
CCCC[C@@H](C=O)NC(=O)[C@H](CC(C)C)NC(=O)OCc1ccccc1 [SJ000755074-1, CALPEPTIN]									18.64	-0.6331	3.296	-0.01297	4.895	2.613	0.9114	2.282
CCCC[C@@H](C=O)NC(=O)[C@H](CC(C)C)NC(=O)OCc1ccccc1 [SJ000755074-2, CALPEPTIN]									27.98	0.3376	2.144	-0.8705	8.208	5.31	2.133	3.349
CNC(=O)[C@H](Cc1c[nH]c2ccccc12)NC(=O)[C@@H](CC(=O)NO)CC(C)C [SJ000755078-1, GM 6001 | ILOMASTAT (GM6001, GALARDIN)]	9.385	-0.512	-0.9664	-1.76	1.237	3.013	-0.3296	9.818								
CCCCNC(=O)[C@@H]1Cc2ccccc2N1C(=O)[C@@H](N)CC [SJ000772394-1, BUTABINDIDE OXALATE]	-4.064	-0.1457	0.61	2.146	-1.569	0.241	-2.465	2.937								
CC(C)[C@H](NS(=O)(=O)c1ccc(-c2ccc(Br)cc2)cc1)C(=O)O [SJ000772395-1, PD 166793]	2.843	-0.8645	-2.252	1.088	-0.00905	0.2317	-2.219	3.907								
CCCC[C@@H](C=O)NC(=O)[C@H](CC(C)C)NC(=O)[C@H](CC(C)C)NC(C)=O [SJ000772397-1, MG 101 | ALLN] (Ac-Leu-Leu-[Nle]-aldehyde)	140.2	57.14	98.27	126.5	82.08	102.2	121	52.66								
Cc1ccc(/C=C2\CNC/C(=C\c3ccc(C)cc3)C2=O)cc1 [SJ000772404-1, NSC 632839 HYDROCHLORIDE]	82.45	61.57	103.5	116.6	77.36	99.63	129.2	84.59								
N#Cc1ccc(NCCNCC(=O)N2CCC[C@H]2C#N)nc1 [SJ000772405-1, NVP DPP 728 DIHYDROCHLORIDE]	-4.67	-1.409	0.6231	-0.003306	-0.757	-0.2952	-0.0114	-2.969								
O=C(O)Cc1cccc2c(=O)c([N+](=O)[O-])c(-c3ccccc3[N+](=O)[O-])oc12 [SJ000772406-1, AMINOPEPTIDASE N INHIBITOR]	5.038	1.312	-0.7017	-2.215	-1.986	-3.246	-0.1255	-3.753								
CC(C)[C@H](NC(=O)[C@H](CCCNC(=N)N)NC(=O)N[C@@H](Cc1ccccc1)C(=O)O)C(=O)N[C@H](C=O)CCCNC(=N)N [SJ000772410-1, ANTIPAIN, DIHYDROCHLORIDE] ({Phe-CO}-Arg-Val-Arg-aldehyde)	4.85	0.8211	2.317	-5.865	-1.834	-3.916	-0.5062	-3.748								
CNC(=O)[C@@H](NC(=O)[C@H](CC(C)C)[C@H](O)C(=O)NO)C(C)(C)C [SJ000772411-1]									14.63	1.691	-1.756	-3.077	-4.036	2.673	-0.5084	2.038
CNC(=O)[C@@H](NC(=O)[C@H](CC(C)C)[C@H](O)C(=O)NO)C(C)(C)C [SJ000772411-2]									28.21	2.823	3.256	5.663	3.499	10.77	4.087	3.1
COC(=O)[C@H](CC(C)C)NC(=O)[C@@H](O)[C@H](N)Cc1ccccc1 [SJ000772416-1, BESTATIN METHYL ESTER]	5.118	3.75	2.851	1.43	8.922	-1.654	3.275	22.26								
CC(C)[C@@H]1C(=O)N(S(C)(=O)=O)[C@@H]2CCN(C(=O)/C=C/CN3CCCCC3)[C@H]21 [SJ000772418-1, GW 311616 HYDROCHLORIDE]	12.76	0.5681	4.399	-2.728	3.043	-2.354	1.212	-1.402								
C=CCNC(=O)c1cc([N+](=O)[O-])cc2c(=O)[nH]c(Nc3ccc(Cl)c(Cl)c3)nc12 [SJ000772422-1, AZ 10417808]	0.7864	0.702	0.1501	-3.629	3.564	0.5205	3.044	-1.321								
COC[C@@H](NC(=O)[C@@H](NC(=O)[C@H](CCCc1ccc(-c2ccccc2)c(C)c1)CC(=O)O)C(C)(C)C)c1ccccc1 [SJ000772423-1, UK 370106]	6.021	0.2215	4.79	-0.5196	2.629	2.493	2.4	2.263								
NC(N)=NCCS[C@@H](CC(=O)O)C(=O)O [SJ000772425-1, GEMSA]	-3.397	0.5506	-0.9686	-1.464	3.627	0.138	1.501	0.2934								
COc1cc(C(C)C)c2c(c1)S(=O)(=O)N(COc1cc(=O)n3cccc(OCCN4CCCCC4)c3n1)C2=O [SJ000772427-1, SSR 69071]	-3.004	-0.6502	3.665	0.212	4.165	1.802	1.75	2.526								
CC(C)C[C@H](N)[C@](O)(Cc1cnc[nH]1)C(=O)O [SJ000772431-1, LEUHISTIN]	4.998	5.093	1.294	-1.024	3.279	0.702	1.038	2.882								
